{
  "source": "paper PMC5995184",
  "about": "“Potent anti-leukemic activity of a specific cyclin-dependent kinase 9 inhibitor in mouse models of chronic lymphocytic leukemia” (Oncotarget, 2018)",
  "tested_on": "blood and splenic leukocytes of wild-type mice",
  "test": "Wild-type littermate control mice, oral LDC526, blood and spleen analysis",
  "assay_type": "in vivo",
  "excerpt": "Another widely used preclinical CLL model are TCL1 transgenic mice. The TCL1 transgenics represent a constitutive CLL model not involving the adoptive transfer of cells. This model mirrors the natural course of human IgVH-unmutated CLL including its disease progression. In addition, this model has also been widely used by others to test novel therapeutic molecules. […] Consecutive blood sampling allowed us to carry out a longitudinal study in individual TCL1 and control mice. For this, we chose a cohort of TCL1 and littermate control mice, which were 9-12 months old (Figure 5A). We chose TCL1 transgenics with high peripheral CLL cell (CD19+CD5+) counts (14.6±7.4/nl, mean±SEM). Given the presumably high leukemic burden in these aged TCL1 mice and the reduced general condition of some NSG mice receiving 75 mg/kg for 5 days we decided to dose TCL1 mice with 50 mg/kg daily for two consecutive days (Figure 5A). As the experiment was longitudinally designed and there was no effect expected of administering carrier to wild-type control mice we omitted this control group and established three experimental groups (Figure 5A). In order to minimize stress by collecting blood specimens we sampled blood three times, 8 days apart (days -5, +3 and +11; Figure 5A). Compared to blood smears prepared before commencing LDC526 treatment a marked decrease of peripheral blood leukocytes and CLL cells was observed two days post the last LDC526 administration to TCL1 transgenic mice (Figure 5B). In contrast to the carrier control treated TCL1 mice, white blood cell counts (WBC) dropped in LDC526-treated wild-type and TCL1 mice (Figure 5C). In comparison to wild-type control mice, where WBC dropped to 34% of baseline values, the WBC decrease in TCL1 mice was more dramatic dropping to 8% of baseline values (Figure 5D).\nOn day +11 (Figure 5A) the experiment was terminated as planned and spleens of the experimental mice were harvested. To be able to assess the impact of LDC526 on wild-type spleens we included n=3 of non-treated age-matched wild-type littermate mice as an additional experimental control group in the final spleen analysis. A caveat of this final spleen analysis posed the fact that in contrast to the longitudinal blood analysis, baseline spleen data of individual aged TCL1 mice were not available. As longitudinal analysis was not possible, we now compared spleen parameters between cohorts. Importantly, it is unknown to which extent the amount of circulating peripheral blood TCL1 CLL cells determined at baseline correlates with splenomegaly. […]\nAll mice were bred and housed at the University Hospital Essen animal care facility. […] Peripheral blood counts were determined with the VetABC analyzer (scil, Viernheim, Germany). […]",
  "data": [
    {"smiles": "COc1cc(F)ccc1-c1ncnc(Nc2cccc(CS(N)(=O)=O)c2)n1", "note": "[LDC526, (3-((4-(4-fluoro-2-methoxyphenyl)-1,3,5-triazin-2-yl)amino)phenyl)methane-sulfonamide]", "values": [
      {"measurement": "WBC, percent of baseline values", "setting": "50 mg/kg daily for two days, day +3", "result": 34, "unit": "%"},
      {"measurement": "concentration of wild-type blood T cells", "setting": "50 mg/kg for two days", "result": "halved"},
      {"measurement": "splenic B cell numbers, percent of untreated mice", "setting": "day +11", "result": 31, "unit": "%"},
      {"measurement": "B cells, percent of baseline levels", "setting": "peripheral blood", "result": 3.7, "unit": "%"}
    ]}
  ]
}
